Assay results taken from patent US7919456B2, “Connective tissue derived polypeptides” (Proteobioactives Pty Ltd., priority 2003, dated 2011).

Test system: rat collagen induced arthritis (CIA) model
Assay: Rat collagen induced arthritis (CIA), prophylactic/therapeutic protocol
Type: in vivo, Female Wistar rats
Conditions: 6.3 mg/kg SC
[1] = 15 days treatment, n = 4, scored 0-4+

In the case of `O=C(O)CC([S-])C(=O)O.[Au+]` (stereo not drawn) [ATM, aurothiomalate], the “Signs of arthritis Day 15 Weight change” value is reported as “+47 g”, the “Signs of arthritis Day 18 Weight change” value is reported as “+04 g” and the “Mean arthritis scores Day 13” value [1] is reported as 0.8. The “Mean arthritis scores Day 15” value [1] was 2.1, the “Mean arthritis scores Day 18” value [1] was 2.1 and the “Signs of arthritis Day 15 F/paw swell” value (fore paw) was 2.5 mm. The “Signs of arthritis Day 18 F/paw swell” value (fore paw) was 3.2 mm, the “Signs of arthritis Day 15 R/paw swell” value (rear paw) was 0.7 mm and the “Signs of arthritis Day 18 R/paw swell” value (rear paw) was 0.8 mm.
